Measured values as given in ChEMBL document CHEMBL1201862, “PubChem BioAssay data set” (2004).
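Cultured in 96-well plates, cells were exposed to test compound for 48 hours across five concentrations. Abbreviation: GI50, concentration required for 50% inhibition of growth.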 The source made the active and inactive calls. No stated cut-off is given here; in the data, active = GI50 up to about 1.1 µM and inactive = higher.

Legend:
Assay in all cases: DTP human tumour cell line panel, 48 h
[1] = tested on: DLD-1
[2] = tested on: EKVX
[3] = tested on: HCT-116
[4] = tested on: HCT-15
[5] = tested on: HOP-62
[6] = tested on: K562
[7] = tested on: Malme-3M
[8] = tested on: NCI-H226
[9] = tested on: NCI-H522
[10] = tested on: OVCAR-5
[11] = tested on: SF-268
[12] = tested on: SN12C
[13] = tested on: SNB-19
[14] = tested on: TK-10
[15] = tested on: UO-31
[16] = tested on: 786-0
[17] = tested on: OVCAR-8
[18] = tested on: Hs-578T
[19] = tested on: MDA-N
[20] = tested on: PC-3

SMILES | GI50 [1] | GI50 [2] | GI50 [3] | GI50 [4] | GI50 [5] | GI50 [6] | GI50 [7] | GI50 [8] | GI50 [9] | GI50 [10] | GI50 [11] | GI50 [12] | GI50 [13] | GI50 [14] | GI50 [15] | GI50 [16] | GI50 [17] | GI50 [18] | GI50 [19] | GI50 [20]
OCCN1CCN(CC/C=C2/c3ccccc3Sc3ccc(Cl)cc32)CC1 | 13.4 µM (inactive) | 16.8 µM (inactive) | 8.47 µM (inactive) | 13.4 µM | 16.1 µM (inactive) | 2.56 µM (inactive) | 5.33 µM (inactive) | 14.6 µM (inactive) | 16.4 µM (inactive) | 17.1 µM (inactive) | 14.6 µM (inactive) | 13.2 µM (inactive) | 20.7 µM (inactive) | 15.2 µM (inactive) | 13.3 µM (inactive) | – | – | – | – | –
Cc1cc2nc3c(=O)n(C)c(=O)nc-3n(-c3ccc(Cl)cc3)c2cc1C | 14.5 µM (inactive) | 20.1 µM (inactive) | 11.9 µM (inactive) | 3.68 µM | 24.4 µM (inactive) | 12.8 µM (inactive) | 10 µM (inactive) | 13.1 µM (inactive) | > 10 µM (inactive) | 18.5 µM (inactive) | 11.4 µM (inactive) | 5.85 µM (inactive) | 5.78 µM (inactive) | 31.9 µM (inactive) | 20 µM (inactive) | 16.1 µM (inactive) | 13.1 µM (inactive) | – | – | –
CCOC(=O)c1sc(Nc2cc(Cl)ccc2Cl)nc1C | 44.7 µM (inactive) | > 100 µM (inactive) | > 100 µM (inactive) | 67.8 µM | > 100 µM (inactive) | 42.9 µM (inactive) | > 100 µM (inactive) | 83.2 µM (inactive) | > 100 µM (inactive) | 37.3 µM (inactive) | > 100 µM (inactive) | 61.9 µM (inactive) | > 100 µM (inactive) | > 100 µM (inactive) | > 100 µM (inactive) | > 100 µM (inactive) | 96.4 µM (inactive) | – | – | –
C=C1C2Oc3ccccc3C1N(c1ccccc1)O2 (centres undefined) | 26.7 µM (inactive) | 42.9 µM (inactive) | 20.3 µM (inactive) | 20.8 µM | 66.7 µM (inactive) | 27.4 µM (inactive) | 46.7 µM (inactive) | 37.9 µM (inactive) | 27.2 µM (inactive) | 80 µM (inactive) | 28.8 µM (inactive) | 23.7 µM (inactive) | 49 µM (inactive) | 84.9 µM (inactive) | 47.9 µM (inactive) | 41.5 µM (inactive) | 17 µM (inactive) | – | – | –
Nc1ccn(C2OC(CO)C(O)C2O)c(=O)n1 (centres undefined) | 481 µM (inactive) | 267 µM (inactive) | 0.207 µM (active) | 73.5 µM | 0.213 µM (active) | 14.6 µM (inactive) | 13.8 µM (inactive) | 239 µM (inactive) | 22.6 µM (inactive) | 21.2 µM (inactive) | 3.15 µM (inactive) | 2.38 µM (inactive) | 7.98 µM (inactive) | 467 µM (inactive) | 6.15 µM (inactive) | 0.514 µM (active) | 0.818 µM (active) | > 481 µM (inactive) | 7.45 µM (inactive) | 36.5 µM (inactive)
CCCCc1c2c(nc3c1CCCC3=O)C(=O)CCC2 | > 100 µM (inactive) | > 100 µM (inactive) | > 100 µM (inactive) | > 100 µM | > 100 µM (inactive) | > 100 µM (inactive) | > 100 µM (inactive) | > 100 µM (inactive) | > 100 µM (inactive) | > 100 µM (inactive) | > 100 µM (inactive) | > 100 µM (inactive) | > 100 µM (inactive) | > 100 µM (inactive) | > 100 µM (inactive) | > 100 µM (inactive) | > 100 µM (inactive) | – | – | –
Cc1ccc(C)c(N2C(=O)C(=O)C(c3nc4ccccc4o3)/C(=N\NC(=O)c3ccccc3O)C2=O)c1 (centres undefined) | 28.9 µM (inactive) | 22.8 µM (inactive) | 17.5 µM (inactive) | 18 µM | 24.9 µM (inactive) | 16.4 µM (inactive) | 66.1 µM (inactive) | 12.2 µM (inactive) | 17.5 µM (inactive) | 58.3 µM (inactive) | 12.2 µM (inactive) | 26.2 µM (inactive) | 12.3 µM (inactive) | 44 µM (inactive) | 16.3 µM (inactive) | 27.4 µM (inactive) | 19.8 µM (inactive) | – | – | –
Cc1cc(N(CCC#N)CCC#N)ccc1/C=C1/N=C(c2ccccc2)N(N)C1=O | > 100 µM (inactive) | > 100 µM (inactive) | > 100 µM (inactive) | > 100 µM | 31.9 µM (inactive) | 53.5 µM (inactive) | > 100 µM (inactive) | > 100 µM (inactive) | 26 µM (inactive) | > 100 µM (inactive) | 60.1 µM (inactive) | > 100 µM (inactive) | 31.1 µM (inactive) | 74.1 µM (inactive) | > 100 µM (inactive) | 37.6 µM (inactive) | > 100 µM (inactive) | – | – | –
CCN(CC)CCCNC(=O)C1COc2cc(-c3cc(=O)c4ccccc4o3)ccc2O1 (centres undefined) | 65.3 µM (inactive) | > 100 µM (inactive) | 37.4 µM (inactive) | 53 µM | > 100 µM (inactive) | 36.6 µM (inactive) | 20.4 µM (inactive) | 76 µM (inactive) | 33.3 µM (inactive) | 81.7 µM (inactive) | 42.9 µM (inactive) | 45.6 µM (inactive) | > 100 µM (inactive) | 42.4 µM (inactive) | 27.4 µM (inactive) | 66.8 µM (inactive) | 53.7 µM (inactive) | – | – | –
O=C(O)/C(Cl)=C(\Cl)C(=O)c1ccccc1 | > 100 µM (inactive) | > 100 µM (inactive) | > 100 µM (inactive) | > 100 µM | > 100 µM (inactive) | > 100 µM (inactive) | > 100 µM (inactive) | > 100 µM (inactive) | > 100 µM (inactive) | > 100 µM (inactive) | > 100 µM (inactive) | > 100 µM (inactive) | > 100 µM (inactive) | > 100 µM (inactive) | > 100 µM (inactive) | > 100 µM (inactive) | > 100 µM (inactive) | – | – | –
CC(=O)c1cc([N+](=O)[O-])ccc1OCC(=O)O | > 100 µM (inactive) | > 100 µM (inactive) | > 100 µM (inactive) | > 100 µM | > 100 µM (inactive) | > 100 µM (inactive) | > 100 µM (inactive) | > 100 µM (inactive) | > 100 µM (inactive) | > 100 µM (inactive) | > 100 µM (inactive) | > 100 µM (inactive) | > 100 µM (inactive) | > 100 µM (inactive) | > 100 µM (inactive) | > 100 µM (inactive) | > 100 µM (inactive) | – | – | –
CC(C)c1cccc2sc(NC(=O)C(=O)CC(=O)c3ccc(F)cc3)nc12 | > 100 µM (inactive) | > 100 µM (inactive) | > 100 µM (inactive) | > 100 µM | > 100 µM (inactive) | > 100 µM (inactive) | > 100 µM (inactive) | > 100 µM (inactive) | > 100 µM (inactive) | > 100 µM (inactive) | > 100 µM (inactive) | > 100 µM (inactive) | > 100 µM (inactive) | > 100 µM (inactive) | > 100 µM (inactive) | > 100 µM (inactive) | > 100 µM (inactive) | – | – | –
CC1=C(C(=O)NCc2ccccc2)C(c2ccc(C3C(C(=O)NCc4ccccc4)=C(C)NC(C)=C3C(=O)NCc3ccccc3)cc2)C(C(=O)NCc2ccccc2)=C(C)N1 | 3.44 µM (inactive) | 14.9 µM (inactive) | 3.02 µM (inactive) | 16.1 µM | 23.2 µM (inactive) | 5.93 µM (inactive) | 14.4 µM (inactive) | 17.5 µM (inactive) | 3.41 µM (inactive) | 23.7 µM (inactive) | 15.1 µM (inactive) | 6.5 µM (inactive) | 15.6 µM (inactive) | 20.7 µM (inactive) | 21.2 µM (inactive) | 15.6 µM (inactive) | 7.03 µM (inactive) | – | – | –
C=C(C=O)[C@@H]1C2OC(=O)C(=C)[C@@H]2CC(O)[C@@]1(C)CC (some centres undefined) | 2.75 µM (inactive) | 18.2 µM (inactive) | 3.78 µM (inactive) | 6.22 µM | 50.2 µM (inactive) | 3.27 µM (inactive) | 6.21 µM (inactive) | 32 µM (inactive) | 1.87 µM (inactive) | 17.8 µM (inactive) | 23.8 µM (inactive) | 10.1 µM (inactive) | 45.2 µM (inactive) | 15.7 µM (inactive) | 21.3 µM (inactive) | 3.32 µM (inactive) | 4.37 µM (inactive) | – | – | –
NCCCNCCSP(=O)(O)O [AMIFOSTINE] | > 750 µM (inactive) | > 750 µM (inactive) | 743 µM (inactive) | > 274 µM | > 321 µM (inactive) | > 750 µM (inactive) | > 335 µM (inactive) | > 703 µM (inactive) | 389 µM (inactive) | > 750 µM (inactive) | > 750 µM (inactive) | > 750 µM (inactive) | > 750 µM (inactive) | – | 535 µM (inactive) | – | > 511 µM (inactive) | – | – | –
Cn1c(/C=C/CO)c(CO)c2c1C(=O)C=C(N1CC1)C2=O [APAZIQUONE] | 0.0152 µM (active) | 0.0463 µM (active) | 0.0109 µM (active) | < 0.01 µM | < 0.01 µM (active) | 0.0195 µM (active) | < 0.01 µM (active) | 0.0185 µM (active) | 0.0102 µM (active) | < 0.0122 µM (active) | 0.0137 µM (active) | < 0.01 µM (active) | < 0.01 µM (active) | – | 0.0142 µM (active) | – | < 0.0156 µM (active) | – | – | –
